The values that follow come from patent publication US11246846B2, “Trisodium citrate compositions having enhanced uptake across digestive mucosa” (priority 2017, dated 2022).

Read-outs that look alike come from different tables or passages of the source.

The test system of data set [1] is Caco2 monolayer. Conditions: for glutathione diffusion across Caco2: human, 10 mM. How it is done:
Again, undyed isotonic DPBS as receiver and donor buffer rather than HBSS was used due to interference with HBSS components in the HPLC. […] Samples were taken at 15 minute intervals for 90 minutes and replaced with fresh isotonic DPBS. Samples were taken from donor chamber at time 0 and at 90 minutes.

Data set [2] relates to Caco2 monolayer. In words: Iso-leucine permeability through Caco2 monolayer with/without TSC (Example IX). The format is in vitro ADME, human. Conditions: for iso-leucine diffusion across Caco2: 10 mM in DPBS. How it is done: Undyed isotonic DPBS was used as receiver and donor buffer rather than HBSS due to interference with HBSS components and Valine in the HPLC. In brief 3 mM 10 mM Isoleucine or Valine in DPBS alone or with 10 mM trisodium citrate was added to the donor chamber of each of 3 side by side diffusion cells with a confluent Caco 2 Monolayer between (TEER˜900 Ohm*cm2). […] Below are the results of this study in table form, which are graphically illustrated in FIG. 16.
(In general: Caco-2 monolayers are a common model of the intestinal barrier.)

For the next data set, the system named is Caco 2 Monolayer. In words: L-Arginine and L-Citrulline diffusion across Caco2 monolayer with/without TSC (Example III). The class given is in vitro ADME, human. As to conditions: for arginine diffusion across Caco2: human, 10 mM; for citrulline diffusion across Caco2: 10 mM in DPBS. How it is done:
Thereafter, further diffusion studies were undertaken using a Caco-2 cellular model similar to that described in connection with Example II above. Four formulations were studied, with chemicals present at 10 mM: […]
For these experiments undyed isotonic DPBS was used as the receiver and donor buffer rather than HBSS due to interference with HBSS components in the HPLC. […] Below are the results of these studies.

Data set [3] relates to Caco2 monolayer. The class given is in vitro ADME, human. Conditions: for arginine diffusion across Caco2: human, 10 mM. The text has this: In further experiments were undertaken using a Caco-2 cellular model similar to that described in connection with Example II above. […] For these experiments undyed isotonic DPBS was used as receiver and donor buffer rather than HBSS due to interference with HBSS components in the HPLC. […] The results of these studies in graphical form are illustrated in FIGS. 6 and 7.

For data set [4], the system named is Caco2 monolayer. In words: L-Citrulline and L-Leucine permeability through Caco2 monolayer with/without TSC (Example V). As to conditions: for citrulline diffusion across Caco2: 10 mM each in DPBS. The class given is in vitro ADME, human. As to the method: Again, undyed isotonic DPBS was used as receiver and donor buffer rather than HBSS due to interference with HBSS components in the HPLC. […] Samples were taken at 15 minute intervals for 90 minutes and replaced with fresh isotonic DPBS. Samples were taken from donor chamber at time 0 and at 90 minutes.

For a further data set, the system named is Caco-2 monolayer. In words: Leucine permeation across Caco-2 model intestinal barrier (Example I). The format is in vitro ADME, human. The text has this: Initially, in order to make a meaningful evaluation of sodium transport of branched-chain amino acids across eukaryotic mucosal cells of the human digestive tract, the inventors elected to test leucine transport using the Caco-2 monolayer model similar to that described by Dash, et al. in “Evaluation of Creatine Transport Using Caco-2 Monolayers” id. The tests were undertaken using a Caco-2 cells so as to more closely approximate transport of creatine and branched-chain amino acids across mucosal cell membranes in vivo than might be reflected in other utilizing non-human cell sources or non-mucosa cell sources. In the permeation tests illustrated herein, simulated gastric and intestinal buffers were made with 0.2 normal (N) NaOH, made by mixing 1 g NaOH as needed with 125 mL deionized water. To simulate intestinal fluid without enzymes, 6.8 g monobasic potassium phosphate were mixed in 77 mL 0.2 N sodium hydroxide, and pH adjusted to 6.8±0.1 using NaOH or HCl, as needed. Thereafter, the solution was diluted to 1 L with deionized water, with a final pH of about 6.8±0.1. To simulate gastric fluid without enzymes, 2.0 g sodium chloride was added to 7.0 mL concentrated HCl, and then diluted to 1 L with deionized water. The pH was approximately 1.2
A repetition in a series of three repetitions was then undertaken to examined the changes in permeation in the presence of a different form of sodium as compared to leucine alone in Hank's Balanced salt solution across a Caco-2 model intestinal barrier (TEER≥1000 ohm*cm2). […] Leucine permeation across the Caco-2 monolayer was measured at 15, 30, 45, 60, 75 and 90 minutes after test initiation in milligrams of leucine per centimeter2 (mg/cm2). Data is summarized in Table I below and illustrated in FIG. 1.

Data set [5] has as its system Caco2 monolayer. In words: Sarcosine and L-Leucine permeability through Caco2 monolayer with/without TSC (Example VI). The class given is in vitro ADME, human. As to conditions: for sarcosine diffusion across Caco2: 10 mM each in DPBS, estimation by subtraction. The text has this:
On analysis it was discovered that a peak in the receiver side samples which had not interfered with previous samples eluted at the same time as the Sarcosine. The results were adjusted by averaging this peak from time points in previous studies and accordingly, the results represent an estimation by subtraction.

The subject of data set [6] is Caco2 monolayer. The data set can be described thus: Valine permeability across Caco2 monolayer with/without TSC (Example X). The format is in vitro ADME, human. As to conditions: for valine diffusion across Caco2: 10 mM in DPBS. How it is done: Undyed isotonic DPBS was used as receiver and donor buffer rather than HBSS due to interference with HBSS components and Valine in the HPLC. In brief 3 mM 10 mM Valine in DPBS alone or with 10 mM trisodium citrate was added to the donor chamber of each of 3 side by side diffusion cells with a confluent Caco 2 Monolayer between (TEER˜900 Ohm*cm2). […] Data is summarized below in Table X and graphically illustrated in FIG. 17.

Data set [7] relates to Caco2 monolayer. In words: Creatine and leucine diffusion across Caco-2 monolayer, sodium/citrate sources (Example II). As to conditions: added at 10 mM to creatine monohydrate and leucine. The format is in vitro ADME, human.
Procedure: More particularly, after 21 days of growth in Corning® Transwell 6 well plat, trans-epithelial electrical resistance (TEER) was measured across the Caco2 monolayer using an EVOM II TEER meter with an Endohm 24SNAP measuring chambers. Cells were considered ready for use if the average TEER value reached approximately 900 Ohm*cm2. The Caco2 monolayer was then equilibrated in DPBS at 37° C. for 15 minutes. The apical solution was then removed and replaced with the various solutions to be tested. Basolateral chambers were sampled at 15, 30, 45, 60, 75 and 90 minutes and replaced with fresh DPBS. All samples were filtered at 0.45 μm and examined by HPLC. The HPLC analysis utilized a 250 mm×4.6 mm, 5 μm Thermo Scientific BDS Hypersil base deactivated C18 column. The mobile phase consisted of 0.5 M ammonium sulphate at a flow rate of 1.5 m/min. Sample detection was performed at 206 nm using a photodiode array. For this Example II, four formulations were studied, with chemicals present at 10 mM:
For the experiments in this study samples from each formulation were monitored apical to basolateral through a Caco-2 membrane registering an average TEER of 1650 Ohm*cm^2.

On to `N[C@@H](CCC(=O)N[C@@H](CS)C(=O)NCC(=O)O)C(=O)O` [Glutathione alone, Glutathione], for which the “Glutathione permeation in the presence of trisodium citrate” value with Caco2 monolayer [1] (Caco-2) was “significantly increased”. The “glutathione diffusion across Caco2” value in the data set on Caco2 monolayer [1] (Caco-2, 15 min) is recorded as 0.177 μM/cm^2; in the data set on Caco2 monolayer [1] (Caco-2, 30 min), 0.467 μM/cm^2; with Caco2 monolayer [1] (Caco-2, 45 min), 0.731 μM/cm^2; in the data set on Caco2 monolayer [1] (Caco-2, 60 min), 0.977 μM/cm^2; with Caco2 monolayer [1] (Caco-2, 75 min), 1.227 μM/cm^2; in the data set with Caco2 monolayer [1] (Caco-2, 90 min), 1.456 μM/cm^2.
For `CC[C@H](C)[C@H](N)C(=O)O` [Iso-leucine alone, iso-leucine], the “permeability shift as a result of the addition of trisodium citrate” value with Caco2 monolayer [2] was “substantially similar permeability shift and overall permeability increase to that exhibited by leucine”. In addition, the “iso-leucine diffusion across Caco2” value is recorded as 0.271 μM/cm^2 in the data set on Caco2 monolayer [2] (15 min); 0.614 μM/cm^2 in the data set with Caco2 monolayer [2] (30 min); 0.978 μM/cm^2 in the data set on Caco2 monolayer [2] (45 min); 1.333 μM/cm^2 in the data set on Caco2 monolayer [2] (60 min); 1.748 μM/cm^2 in the data set on Caco2 monolayer [2] (75 min); 2.078 μM/cm^2 with Caco2 monolayer [2] (90 min).
In the case of `N=C(N)NCCC[C@H](N)C(=O)O` [L-Arginine alone, L-Arginine], the “arginine diffusion across Caco2” value in the data set with Caco 2 Monolayer (Caco-2, 15 min) was 0.988 μM/cm^2; in the data set with Caco 2 Monolayer (Caco-2, 30 min) it was 1.453 μM/cm^2; in the data set with Caco 2 Monolayer (Caco-2, 45 min), 2.033 μM/cm^2; with Caco 2 Monolayer (Caco-2, 60 min), 2.578 μM/cm^2; in the data set with Caco 2 Monolayer (Caco-2, 75 min) it was 3.005 μM/cm^2; with Caco 2 Monolayer (Caco-2, 90 min), 3.448 μM/cm^2. Besides, the “arginine diffusion across Caco2” value turned out to be 1.007 μM/cm^2 in the data set with Caco2 monolayer [3] (Caco-2, 15 min); 1.511 μM/cm^2 in the data set with Caco2 monolayer [3] (Caco-2, 30 min); 1.999 μM/cm^2 in the data set with Caco2 monolayer [3] (Caco-2, 45 min); 2.432 μM/cm^2 in the data set with Caco2 monolayer [3] (Caco-2, 60 min); 2.982 μM/cm^2 with Caco2 monolayer [3] (Caco-2, 75 min); 3.237 μM/cm^2 in the data set with Caco2 monolayer [3] (Caco-2, 90 min). Besides, in the data set with Caco2 monolayer [3] (Caco-2), the “L-Arginine permeability in the presence of trisodium citrate” value is given as “enhanced”.
As for `NC(=O)NCCC[C@H](N)C(=O)O` [L-Citrulline alone, L-Citrulline], the “L-Citrulline change in permeability in the presence of TSC” value with Caco 2 Monolayer (10 mM TSC) was “did not show any significant change”. In addition, the “citrulline diffusion across Caco2” value turned out to be 2.281 μM/cm^2 with Caco 2 Monolayer (15 min); 1.428 μM/cm^2 in the data set with Caco 2 Monolayer (30 min); 1.415 μM/cm^2 in the data set on Caco 2 Monolayer (45 min); 2.191 μM/cm^2 in the data set with Caco 2 Monolayer (60 min); 2.457 μM/cm^2 with Caco 2 Monolayer (75 min); 2.893 μM/cm^2 in the data set with Caco 2 Monolayer (90 min). Besides, the “citrulline diffusion across Caco2” value was found to be 0.846 μM/cm^2 in the data set on Caco2 monolayer [4] (15 min); 1.174 μM/cm^2 in the data set on Caco2 monolayer [4] (30 min); 1.906 μM/cm^2 with Caco2 monolayer [4] (45 min); 2.381 μM/cm^2 in the data set on Caco2 monolayer [4] (60 min); 2.699 μM/cm^2 in the data set on Caco2 monolayer [4] (75 min); 3.300 μM/cm^2 in the data set with Caco2 monolayer [4] (90 min). Besides, the “effect on L-Citrulline permeability by TSC or L-Leucine” value in the data set with Caco2 monolayer [4] is “no significant effect”.
In the case of `CC(C)C[C@H](N)C(=O)O` [Leucine], the “Leucine permeation across Caco-2 monolayer” value with Caco-2 monolayer (human, Caco-2, 15 min) was 0.036 mg/cm2; in the data set with Caco-2 monolayer (human, Caco-2, 30 min), 0.052 mg/cm2; in the data set on Caco-2 monolayer (human, Caco-2, 45 min), 0.078 mg/cm2; with Caco-2 monolayer (human, Caco-2, 60 min), 0.106 mg/cm2; with Caco-2 monolayer (human, Caco-2, 75 min), 0.128 mg/cm2; in the data set with Caco-2 monolayer (human, Caco-2, 90 min) it was 0.151 mg/cm2. Moreover, the “Baseline adj for Leucine w/o Na” value in the data set on Caco-2 monolayer (human, Caco-2, 90 min) stood at 0.00 mg/cm2. In addition, in the data set on Caco2 monolayer [3] (Caco-2), the “L-Leucine permeability in the presence of trisodium citrate” value was “enhanced”. Moreover, the “L-Leucine permeability in the presence of TSC” value in the data set on Caco2 monolayer [4] (with L-Citrulline) and in the data set on Caco2 monolayer [5] (in the presence of sarcosine) was “enhanced” throughout. Besides, in the data set with Caco2 monolayer [1] (Caco-2), the “effect on the permeability of glutathione” value was “no noticeable effect”. Further, the “permeability of Leucine in the presence of trisodium citrate” value in the data set with Caco2 monolayer [1] (Caco-2) was “enhanced”.
Take `CNCC(=O)O` [Sarcosine alone, Sarcosine]: the “Sarcosine permeability in the presence of TSC” value in the data set on Caco2 monolayer [5] was “enhanced”. For the same molecule, the “sarcosine diffusion across Caco2” value with Caco2 monolayer [5] (15 min) is 0.496 μM/cm^2; with Caco2 monolayer [5] (30 min), 0.405 μM/cm^2; in the data set with Caco2 monolayer [5] (45 min) it was 0.974 μM/cm^2; in the data set on Caco2 monolayer [5] (60 min), 1.423 μM/cm^2; in the data set on Caco2 monolayer [5] (75 min), 2.102 μM/cm^2; in the data set on Caco2 monolayer [5] (90 min) it was 1.801 μM/cm^2.
In the case of `CC(C)[C@H](N)C(=O)O` [Valine alone, Valine], the “valine diffusion across Caco2” value was determined as 1.388 μM/cm^2 in the data set on Caco2 monolayer [6] (15 min); 1.431 μM/cm^2 in the data set on Caco2 monolayer [6] (30 min); 1.537 μM/cm^2 in the data set on Caco2 monolayer [6] (45 min); 1.682 μM/cm^2 in the data set on Caco2 monolayer [6] (60 min); 1.841 μM/cm^2 with Caco2 monolayer [6] (75 min); 2.081 μM/cm^2 in the data set on Caco2 monolayer [6] (90 min). In addition, the “permeability shift in the presence of trisodium citrate” value with Caco2 monolayer [6] (compared to iso-leucine and leucine) is “significantly greater permeability shift and overall higher permeability”.
Turning to `O=C1O[C@H]([C@@H](O)CO)C([O-])=C1O.[Na+]` [sodium ascorbate], the “permeation of leucine in the presence of the sodium source” value in the data set with Caco-2 monolayer (compared to leucine alone / sodium ascorbate) is on record as “slight increase”.
As for `[Cl-].[Na+]` [sodium chloride], in the data set with Caco2 monolayer [7], the “effect on leucine permeability” value is given as “did produce an effect” and the “effect on permeability of creatine monohydrate” value is “enhanced”.
